In BindingDB's records for doi:10.1016/0960-894X(96)00297-1 (1996):

biological target: Endothelin-converting enzyme 1 (Cavia porcellus); assay: In vitro inhibition of phosphoramidon-sensitive membrane bound zinc metalloprotease Endothelin-converting enzyme from partially purified guinea pig lungs

Structure (SMILES)	IC50 [nM]
CC(=O)N[C@@H](Cc1ccccc1)P(=O)(O)CC1(C(=O)N[C@@H](Cc2c[nH]c3ccccc23)C(=O)O)CCCC1 [(S)-2-({1-[((R)-1-Acetylamino-2-phenyl-ethyl)-hydroxy-phosphinoylmethyl]-cyclopentanecarbonyl}-amino)-3-(1H-indol-3-yl)-propionic acid]	600
O=C(N[C@@H](Cc1ccccc1)P(=O)(O)CC1(C(=O)N[C@@H](Cc2c[nH]c3ccccc23)C(=O)O)CCCC1)c1ccccc1 [(S)-2-({1-[((R)-1-Benzoylamino-2-phenyl-ethyl)-hydroxy-phosphinoylmethyl]-cyclopentanecarbonyl}-amino)-3-(1H-indol-3-yl)-propionic acid]	250
NC(=O)C[C@H](NC(=O)C1(CP(=O)(O)[C@H](Cc2ccccc2)NC(=O)OCc2ccccc2)CCCC1)C(=O)O [(S)-2-({1-[((R)-1-Benzyloxycarbonylamino-2-phenyl-ethyl)-hydroxy-phosphinoylmethyl]-cyclopentanecarbonyl}-amino)-succinamic acid]	> 1000
O=C(N[C@H](Cc1ccccc1)P(=O)(O)CC1(C(=O)N[C@@H](Cc2c[nH]c3ccccc23)C(=O)O)CCCC1)OCc1ccccc1 [(S)-2-({1-[((S)-1-Benzyloxycarbonylamino-2-phenyl-ethyl)-hydroxy-phosphinoylmethyl]-cyclopentanecarbonyl}-amino)-3-(1H-indol-3-yl)-propionic acid]	> 10000
CC(C)(C)C(=O)N[C@@H](Cc1ccccc1)P(=O)(O)CC1(C(=O)N[C@@H](Cc2c[nH]c3ccccc23)C(=O)O)CCCC1 [(S)-2-[(1-{[(R)-1-(2,2-Dimethyl-propionylamino)-2-phenyl-ethyl]-hydroxy-phosphinoylmethyl}-cyclopentanecarbonyl)-amino]-3-(1H-indol-3-yl)-propionic acid]	550
CC(C)C[C@H](NP(=O)(O)O)C(=O)N[C@@H](Cc1c[nH]c2ccccc12)C(=O)O [(S)-3-(1H-Indol-3-yl)-2-((S)-4-methyl-2-phosphonoamino-pentanoylamino)-propionic acid]	1500

Compounds with a lower IC50, results first:

IC50 [nM]	Structure (SMILES)
190	O=C(N[C@@H](Cc1ccccc1)P(=O)(O)CC1(C(=O)N[C@@H](Cc2c[nH]c3ccccc23)C(=O)O)CCCC1)OCc1ccccc1 [(S)-2-({1-[((R)-1-Benzyloxycarbonylamino-2-phenyl-ethyl)-hydroxy-phosphinoylmethyl]-cyclopentanecarbonyl}-amino)-3-(1H-indol-3-yl)-propionic acid]
120	O=C(N[C@@H](Cc1ccccc1)P(=O)(O)CC1(C(=O)N[C@@H](Cc2ccc(O)cc2)C(=O)O)CCCC1)OCc1ccccc1 [(S)-2-({1-[((R)-1-Benzyloxycarbonylamino-2-phenyl-ethyl)-hydroxy-phosphinoylmethyl]-cyclopentanecarbonyl}-amino)-3-(4-hydroxy-phenyl)-propionic acid]
160	COc1ccc(C(=O)N[C@@H](Cc2ccccc2)P(=O)(O)CC2(C(=O)N[C@@H](Cc3c[nH]c4ccccc34)C(=O)O)CCCC2)cc1 [(S)-2-[(1-{Hydroxy-[(R)-1-(4-methoxy-benzoylamino)-2-phenyl-ethyl]-phosphinoylmethyl}-cyclopentanecarbonyl)-amino]-3-(1H-indol-3-yl)-propionic acid]
90	NCc1ccc(C(=O)N[C@@H](Cc2ccccc2)P(=O)(O)CC2(C(=O)N[C@@H](Cc3c[nH]c4ccccc34)C(=O)O)CCCC2)cc1 [(S)-2-[(1-{[(R)-1-(4-Aminomethyl-benzoylamino)-2-phenyl-ethyl]-hydroxy-phosphinoylmethyl}-cyclopentanecarbonyl)-amino]-3-(1H-indol-3-yl)-propionic acid]
